Patent publication US20070264659A1, “LUNG CANCER BIOMARKER DISCOVERY” (priority 2006, published 2007)

System: lung cancer cell lines A549, NCI-H146 and NCI-H358
Assay: Reactivation of 20 identified genes by treatment of demethylating agent (gene expression)
Type: cell-based
Settings: lung cancer cells treated with DAC compared with untreated cells; FIG. 4B
Procedure: Separately, lung cancer cell lines such as A549, NCI-H146 and NCI-H358 are treated with a demethylating agent DAC and assayed for reactivation of genes that are normally repressed in tumor cells. Overlapping genes between the tumor suppressed gene set and the demethylation reactivated gene set are considered to be candidate genes for lung cancer biomarkers. One hundred six (106) such overlapping genes were found (FIG. 1). Methylation sensitive enzyme/nucleic acid sequence based amplification analysis such as Hpa II Mspl enzyme digestion/PCR (or enzyme digestion post-PCR) further removed a few other genes that were not methylated in any of the lung cancer cell lines. To further confirm biochemically that the candidate gene was indeed methylated in tumor cells, bisulfite sequencing assays were conducted and methylation of the final 20 genes was verified.
Gene expression profiles of the 20 genes were created. The expression level of the 20 genes was measured in lung cancer cell lines treated with DAC (FIG. 4B). Methylation status of the genes was also measured using methylation sensitive enzyme/nucleic acid sequence based amplification analysis such as Hpa II/MspI enzyme digestion/PCR (or enzyme digestion post-PCR) method on lung cancer cell lines and the results for the 20 genes is shown in FIG. 4A. The identified genes are not methylated in normal cells. […]

Nc1ncn([C@H]2C[C@H](O)[C@@H](CO)O2)c(=O)n1 [DAC, 5 aza 2′-deoxycytidine] was tested, and the “gene expression of the 20 identified genes in lung cancer cells treated with demethylating agent” value was “reactivated”.
